# Measurements: paper PMC9545474, “Anticancer Water‐Soluble Organoruthenium Complexes: Synthesis and Preclinical Evaluation” (Chembiochem, 2022)
# Where a name gives a salt, the structure may show the parent alone. Read-outs that look alike come from different tables or passages of the source.
# Key:
# [1] = tested on: A2780 ovarian cancer cells; assay: 24-hour MTT chemosensitivity assay with 72-hour recovery, A2780; format: cell-based, human; settings: for Selectivity index (SI), A2780: mean IC50 PNT2 / mean IC50 A2780
# Experimental: (§1) Chemosensitivity studies were undertaken using a 24‐hour MTT assay, with a 72‐hour recovery period. The IC50 values were determined against ovarian A2780 (cisplatin‐sensitive) and A2780cisR (cisplatin‐resistant) cancer cell lines, non‐small‐cell lung H460 cancer cell line, and normal prostate PNT2 cell line, exposed to each of compounds 4–8, cisplatin or the phosphine ligands (Table 1 and S4, Figures S29–S31). […] This is unusual but can be related to solubility issues not visible for the naked eye and thus hindering its activity in cells. […] When tested on their own, the phosphine ligands are not active below 100 μM for all four cell lines. […] This therefore prevents comparison with the well‐known RAPTA family, and more especially with RAPTA−C which bears a PTA ligand and a p‐cym ligand, making this complex relatively similar in terms of geometry with complex 4.[21] […] This confirms the interest of the sulfur coordinating atom in terms of cytotoxicity for organoruthenium complexes.[23]
# (§2) Chemosensitivity assay: In vitro chemosensitivity tests were performed against A2780, A2780cisR, PNT2 and H460 cells. Cells were routinely maintained as monolayer cultures in RPMI 1640 medium supplemented with 10 % foetal calf serum, penicillin (100 I.U./mL) and streptomycin (100 μg/mL), sodium pyruvate (1 mM) and L‐glutamine (2 mM). For chemosensitivity studies, cells were seeded in 96‐well plates at a concentration of 7.5×10^3 cells per well and the plates were incubated for 24 h at 37 °C and a 5 % CO2 humidified atmosphere prior to drug exposure.
# (§3) Complexes were dissolved in either DMSO (complexes 4, 5, and 8) or PBS (complexes 6 and 7) to provide stock solutions which were further diluted with media to provide a range of final concentrations. Drug‐media solutions were added to cells (the final concentration of DMSO was less than 1 % (v/v) in all cases) and incubated for 24 h at 37 °C and a 5 % CO2 humidified atmosphere. The drug‐media solution was removed from the wells and the cells were washed with PBS (100 μL, twice) and 200 μL of complete fresh media were added to each well. The plates were further incubated for 72 h at 37 °C and a 5 % CO2 humidified atmosphere to allow for a period of recovery. 3‐(4,5‐dimethylthiazol‐2‐yl)‐2,5‐diphenyltetrazolium bromide (MTT) (40 μL, 2.5 mg/mL) was added to each well and plates were incubated for 2 h. All solutions were then removed and 100 μL of DMSO was added to each well in order to dissolve the purple formazan crystals. A Thermo Scientific Multiskan EX microplate photometer was used to measure the absorbance in each well at 570 nm. Cell survival was determined as the absorbance of treated cells divided by the absorbance of controls and expressed as a percentage. The IC50 values were determined from plots of % survival against drug concentration. Each experiment was repeated in triplicates of triplicates and a mean value was obtained and stated as IC50 (μM) ± SD. Untreated cells were used as a negative control, and cells treated with cisplatin were used as a positive control.
# [2] = tested on: H460 non-small-cell lung cancer cells; assay: 24-hour MTT chemosensitivity assay with 72-hour recovery, H460; format: cell-based
# Experimental: as §1, §2, §3
# [3] = tested on: PNT2 non-cancerous human prostate cells; assay: 24-hour MTT chemosensitivity assay with 72-hour recovery, PNT2; format: cell-based
# Experimental: as §1, §2, §3
# [4] = tested on: A2780cisR cisplatin-resistant ovarian cancer cells; assay: 24-hour MTT chemosensitivity assay with 72-hour recovery, A2780cisR; format: cell-based, human; settings: for IC50: read-out: IC50 values ±SD, A2780cisR; for Selectivity index (SI), A2780cisR: mean IC50 PNT2 / mean IC50 A2780cisR
# Experimental: as §1, §2, §3
# A2780 cells = assay: FITC annexin-V / PI apoptosis assay by flow cytometry; format: cell-based, human; settings: A2780, 24 h, complexes 2×IC50, doxorubicin 0.5 µM; for viability at 0.5 µM: Homo sapiens
# Source text: Annexin V‐FITC and propidium iodide (PI) have been used to distinguish between viable cells (Q1‐LL), early apoptotic cells (Q1‐LR), late apoptotic cells (Q1‐UR), and necrotic cells (Q1‐UL). […] Both complexes 6 and 8 induce apoptosis of A2780 cells and treatment with the complexes results in 99.6 % and 95.4 % of the cells in late apoptosis, respectively.
# Figure 9 Flow cytometry analysis of A2780 cells exposed to complexes 6 or 8 at twice the IC50 concentration compared to a negative control. FITC reads annexin fluorescence and PE reads propidium iodide. Abbreviations: Q1‐UL=non‐viable cells; Q1‐UR=late‐stage apoptotic cells; Q1‐LR=early‐stage apoptotic cells and Q1‐LL=healthy cells.
# FITC annexin‐V apoptosis assay: Flow cytometry analysis of apoptotic populations was carried out using the FITC Annexin V Apoptosis Detection Kit with PI (BioLegend®) according to manufacturer's instructions. Briefly, A2780 cells were seeded in 6‐well plates at a concentration of 1.0×10^6 cells per well and the plates were incubated for 24 h at 37 °C and a 5 % CO2 humidified atmosphere. […] Cells were then harvested using trypsin (without EDTA) and stained with PI/Annexin V‐FITC. After staining in the dark for 15 min at room temperature, cell pellets were analysed in a BD Accuri C6 Plus System flow cytometer and data was analysed using the BD Accuri C6 Plus software. These experiments were carried out in duplicate of triplicates in independent experiments; although only selected dot plots are shown, full numerical data and statistical analysis can be found in the Supporting Information.
# [5] = Homo sapiens, A2780, read-out: IC50 values ±SD, A2780
# [6] = Homo sapiens, NCI-H460, read-out: IC50 values ±SD, H460
# [7] = Homo sapiens, PNT2, read-out: IC50 values ±SD, PNT2
# [8] = 24 h exposure, 72 h recovery, MTT, read-out: IC50 values ±SD, A2780
# [9] = 24 h exposure, 72 h recovery, MTT, read-out: IC50 values ±SD, H460
# [10] = 24 h exposure, 72 h recovery, MTT, read-out: IC50 values ±SD, PNT2
# [11] = 24 h exposure, 72 h recovery, MTT
# [12] = Combined results, Average of two experiments
compound,measurement,setting,value
"C1N2CN3CN1CP(C2)C3 [PTA, 1,3,5‐triaza‐7‐phosphaadamantane]",IC50,[1]; [5],≥ 100 µM
same,IC50,[2]; [6],≥ 100 µM
same,IC50,[3]; [7],≥ 100 µM
same,IC50,"[4]; Homo sapiens, A2780cisR",≥ 100 µM
"Cc1ccc(C(C)C)cc1.N#CC1=C(C#N)[S][Ru-]([P+](c2ccc(C(F)(F)F)cc2)(c2cccc(S(=O)(=O)[O-])c2)c2cccc(S(=O)(=O)[O-])c2)[S]1.[Na+].[Na+] [Complex 7, (η^6‐p‐cymene)(p‐DANPHOS)Ru(Mnt)]",IC50,[1]; [8],2.8 ± 0.8 µM
same,"Selectivity index (SI), A2780",[1],0.79
same,IC50,[2]; [9],2.3 ± 0.3 µM
same,"Selectivity index (SI), H460",[2]; mean IC50 PNT2 / mean IC50 H460,0.96
same,IC50,[3]; [10],2.2 ± 0.1 µM
same,IC50,[4]; [11],2.3 ± 0.7 µM
same,"Selectivity index (SI), A2780cisR",[4],0.96
"CC(=O)N1CN2CN(C(C)=O)CP(C2)C1 [DAPTA, 3,7‐diacetyl‐1,3,7‐triaza‐5‐phosphabicyclo[3.3.1]nonane]",IC50,[1]; [5],≥ 100 µM
same,IC50,[2]; [6],≥ 100 µM
same,IC50,[3]; [7],≥ 100 µM
same,IC50,"[4]; Homo sapiens, A2780cisR",≥ 100 µM
"O=S(=O)(O)c1cccc(P(c2cccc(S(=O)(=O)O)c2)c2cccc(S(=O)(=O)O)c2)c1 [TPPTS, triphenylphosphine‐3,3′,3′′‐trisulfonic acid trisodium salt]",IC50,[1]; [8],≥ 100 µM
same,IC50,[2]; [9],≥ 100 µM
same,IC50,[3]; [10],≥ 100 µM
same,IC50,[4]; [11],≥ 100 µM
(η^6‐p‐cymene)(DAPTA)Ru(Mnt) [Complex 5],IC50,[1]; [8],14 ± 2 µM
same,"Selectivity index (SI), A2780",[1],2.36
same,IC50,[2]; [9],≥ 100 µM
same,IC50,[3]; [10],33 ± 1.4 µM
same,IC50,[4]; [11],72 ± 6 µM
same,"Selectivity factor (cross-resistance, resistance factor RF)",[4]; IC50 A2780cisR / IC50 A2780,5.1
same,"Selectivity index (SI), A2780cisR",[4],0.49
"COc1cccc2c1C(=O)c1c(O)c3c(c(O)c1C2=O)C[C@@](O)(C(=O)CO)C[C@@H]3O[C@H]1C[C@H](N)[C@H](O)[C@H](C)O1 [Doxorubicin, doxorubicin, reference compound]",Early apoptosis (Q1-LR),A2780 cells; [12],0.0%
same,Late apoptosis (Q1-UR),A2780 cells; [12],99.9%
same,Necrosis (Q1-UL),A2780 cells; [12],0.1%
same,Early apoptosis (Q1-LR),"A2780 cells; Experiment 1, Average",0.0%
same,Late apoptosis (Q1-UR),"A2780 cells; Experiment 1, Average",99.9%
same,Necrosis (Q1-UL),"A2780 cells; Experiment 1, Average",0.1%
same,Viable cells (Q1-LL),"A2780 cells; Experiment 1, Average",0.0%
same,Early apoptosis (Q1-LR),"A2780 cells; Experiment 1, Rep 1",0.0%
same,Late apoptosis (Q1-UR),"A2780 cells; Experiment 1, Rep 1",99.8%
same,Necrosis (Q1-UL),"A2780 cells; Experiment 1, Rep 1",0.2%
same,Early apoptosis (Q1-LR),"A2780 cells; Experiment 1, Rep 2",0.0%
same,Late apoptosis (Q1-UR),"A2780 cells; Experiment 1, Rep 2",99.9%
same,Necrosis (Q1-UL),"A2780 cells; Experiment 1, Rep 2",0.1%
same,Early apoptosis (Q1-LR),"A2780 cells; Experiment 1, Rep 3",0.0%
same,Late apoptosis (Q1-UR),"A2780 cells; Experiment 1, Rep 3",100.0%
same,Necrosis (Q1-UL),"A2780 cells; Experiment 1, Rep 3",0.0%
same,Early apoptosis (Q1-LR),"A2780 cells; Experiment 2, Average",0.0%
same,Late apoptosis (Q1-UR),"A2780 cells; Experiment 2, Average",99.9%
same,Necrosis (Q1-UL),"A2780 cells; Experiment 2, Average",0.0%
same,Viable cells (Q1-LL),"A2780 cells; Experiment 2, Average",0.0%
same,Early apoptosis (Q1-LR),"A2780 cells; Experiment 2, Rep 1",0.0%
same,Late apoptosis (Q1-UR),"A2780 cells; Experiment 2, Rep 1",99.9%
same,Necrosis (Q1-UL),"A2780 cells; Experiment 2, Rep 1",0.0%
same,Early apoptosis (Q1-LR),"A2780 cells; Experiment 2, Rep 2",0.0%
same,Late apoptosis (Q1-UR),"A2780 cells; Experiment 2, Rep 2",99.9%
same,Necrosis (Q1-UL),"A2780 cells; Experiment 2, Rep 2",0.1%
same,Early apoptosis (Q1-LR),"A2780 cells; Experiment 2, Rep 3",0.0%
same,Late apoptosis (Q1-UR),"A2780 cells; Experiment 2, Rep 3",100.0%
same,Necrosis (Q1-UL),"A2780 cells; Experiment 2, Rep 3",0.0%
same,viability at 0.5 µM,"A2780 cells; Combined results, Average of two experiments, read-out: Viable cells (Q1-LL)",0%
same,viability at 0.5 µM,"A2780 cells; Experiment 1, Average, read-out: Viable cells (Q1-LL)",0%
same,viability at 0.5 µM,"A2780 cells; Experiment 1, Rep 1, read-out: Viable cells (Q1-LL)",0%
same,viability at 0.5 µM,"A2780 cells; Experiment 1, Rep 2, read-out: Viable cells (Q1-LL)",0%
same,viability at 0.5 µM,"A2780 cells; Experiment 1, Rep 3, read-out: Viable cells (Q1-LL)",0%
same,viability at 0.5 µM,"A2780 cells; Experiment 2, Average, read-out: Viable cells (Q1-LL)",0%
same,viability at 0.5 µM,"A2780 cells; Experiment 2, Rep 1, read-out: Viable cells (Q1-LL)",0%
same,viability at 0.5 µM,"A2780 cells; Experiment 2, Rep 2, read-out: Viable cells (Q1-LL)",0.1%
same,viability at 0.5 µM,"A2780 cells; Experiment 2, Rep 3, read-out: Viable cells (Q1-LL)",0%
"O=S(=O)(O)c1cccc(P(c2ccc(C(F)(F)F)cc2)c2cccc(S(=O)(=O)O)c2)c1 [p-DANPHOS, bis(3‐sulfonatophenyl)(4‐trifluoromethylphenyl)phosphine disodium dihydrate]",IC50,[1]; [5],≥ 100 µM
same,IC50,[2]; [6],≥ 100 µM
same,IC50,[3]; [7],≥ 100 µM
same,IC50,"[4]; Homo sapiens, A2780cisR",≥ 100 µM
